Experimental data published in the NIST ThermoML archive (doi:10.1016/j.jct.2015.02.019).
Numbers after ± are expanded uncertainties.

What was measured:
[1] = 298.15 K; 100 kPa; Liquid; Vibrating tube method
[2] = refractive index (Na D-line) (dimensionless); details: 298.15 K; 101.33 kPa; Liquid; Standard Abbe refractometry
[3] = xn = mol fraction of the nth substance listed; details: 298.15 K, 100 kPa, Liquid, Vibrating tube method
[4] = excess molar enthalpy (molar enthalpy of mixing); xn = mol fraction of the nth substance listed; details: 298.15 K, 100 kPa, Liquid, Calvet calorimetry

CO [methanol]
mass density [1]: 786.4 ± 0.15 kg/m3 | refractive index [2]: 1.3261 ± 0.0005

CCCCC(=O)OC [methyl pentanoate] + COC=O
mass density ([3]; x1 = 0.0555): 956.19 ± 0.2 kg/m3 | mass density ([3]; x1 = 0.104): 948.47 ± 0.2 kg/m3 | mass density ([3]; x1 = 0.1464): 942.39 ± 0.21 kg/m3 | mass density ([3]; x1 = 0.2093): 934.27 ± 0.21 kg/m3 | mass density ([3]; x1 = 0.2537): 929.22 ± 0.22 kg/m3 | mass density ([3]; x1 = 0.3106): 923.46 ± 0.22 kg/m3 | mass density ([3]; x1 = 0.3493): 919.84 ± 0.23 kg/m3 | mass density ([3]; x1 = 0.4011): 915.46 ± 0.23 kg/m3 | mass density ([3]; x1 = 0.4572): 911.17 ± 0.24 kg/m3 | mass density ([3]; x1 = 0.5): 908.17 ± 0.24 kg/m3 | mass density ([3]; x1 = 0.5539): 904.69 ± 0.25 kg/m3 | mass density ([3]; x1 = 0.6081): 901.55 ± 0.26 kg/m3 | mass density ([3]; x1 = 0.6522): 899.15 ± 0.26 kg/m3 | mass density ([3]; x1 = 0.7258): 895.5 ± 0.27 kg/m3 | mass density ([3]; x1 = 0.7765): 893.24 ± 0.27 kg/m3 | mass density ([3]; x1 = 0.836): 890.8 ± 0.28 kg/m3 | mass density ([3]; x1 = 0.9031): 888.23 ± 0.29 kg/m3 | mass density ([3]; x1 = 1): 884.78 ± 0.3 kg/m3 | excess molar enthalpy ([4]; x1 = 0.0272): 0.0141 ± 0.000478 kcal/mol | excess molar enthalpy ([4]; x1 = 0.0583): 0.0268 ± 0.000717 kcal/mol | excess molar enthalpy ([4]; x1 = 0.0932): 0.0409 ± 0.000956 kcal/mol | excess molar enthalpy ([4]; x1 = 0.1292): 0.055 ± 0.0012 kcal/mol | excess molar enthalpy ([4]; x1 = 0.172): 0.0696 ± 0.00143 kcal/mol | excess molar enthalpy ([4]; x1 = 0.2104): 0.0813 ± 0.00191 kcal/mol | excess molar enthalpy ([4]; x1 = 0.2533): 0.0906 ± 0.00191 kcal/mol | excess molar enthalpy ([4]; x1 = 0.2946): 0.0958 ± 0.00215 kcal/mol | excess molar enthalpy ([4]; x1 = 0.3096): 0.0987 ± 0.00215 kcal/mol | excess molar enthalpy ([4]; x1 = 0.3486): 0.101 ± 0.00215 kcal/mol | excess molar enthalpy ([4]; x1 = 0.3982): 0.103 ± 0.00215 kcal/mol | excess molar enthalpy ([4]; x1 = 0.4522): 0.103 ± 0.00215 kcal/mol | excess molar enthalpy ([4]; x1 = 0.5232): 0.0978 ± 0.00215 kcal/mol | excess molar enthalpy ([4]; x1 = 0.6056): 0.0875 ± 0.00191 kcal/mol | excess molar enthalpy ([4]; x1 = 0.6943): 0.0727 ± 0.00167 kcal/mol | excess molar enthalpy ([4]; x1 = 0.7968): 0.0523 ± 0.0012 kcal/mol | excess molar enthalpy ([4]; x1 = 0.8656): 0.0347 ± 0.000717 kcal/mol | excess molar enthalpy ([4]; x1 = 0.93): 0.0201 ± 0.000478 kcal/mol

CCCCC(=O)OC [methyl pentanoate] + CO
mass density ([3]; x1 = 0.0235): 793.56 ± 0.19 kg/m3 | mass density ([3]; x1 = 0.062): 803.85 ± 0.18 kg/m3 | mass density ([3]; x1 = 0.0741): 806.78 ± 0.18 kg/m3 | mass density ([3]; x1 = 0.1314): 818.95 ± 0.17 kg/m3 | mass density ([3]; x1 = 0.1512): 822.61 ± 0.16 kg/m3 | mass density ([3]; x1 = 0.2017): 830.95 ± 0.16 kg/m3 | mass density ([3]; x1 = 0.248): 837.51 ± 0.16 kg/m3 | mass density ([3]; x1 = 0.304): 844.36 ± 0.16 kg/m3 | mass density ([3]; x1 = 0.3501): 849.28 ± 0.16 kg/m3 | mass density ([3]; x1 = 0.4499): 858.16 ± 0.17 kg/m3 | mass density ([3]; x1 = 0.5121): 862.75 ± 0.18 kg/m3 | mass density ([3]; x1 = 0.6073): 868.69 ± 0.19 kg/m3 | mass density ([3]; x1 = 0.6865): 872.86 ± 0.21 kg/m3 | mass density ([3]; x1 = 0.7472): 875.67 ± 0.22 kg/m3 | mass density ([3]; x1 = 0.7884): 877.42 ± 0.23 kg/m3 | mass density ([3]; x1 = 0.7982): 877.81 ± 0.24 kg/m3 | mass density ([3]; x1 = 0.8786): 880.85 ± 0.26 kg/m3 | mass density ([3]; x1 = 0.963): 883.66 ± 0.29 kg/m3 | mass density ([3]; x1 = 1): 884.78 ± 0.3 kg/m3 | excess molar enthalpy ([4]; x1 = 0.0244): 0.0198 ± 0.000717 kcal/mol | excess molar enthalpy ([4]; x1 = 0.0512): 0.0404 ± 0.000956 kcal/mol | excess molar enthalpy ([4]; x1 = 0.0839): 0.0662 ± 0.00143 kcal/mol | excess molar enthalpy ([4]; x1 = 0.1195): 0.0915 ± 0.00191 kcal/mol | excess molar enthalpy ([4]; x1 = 0.1562): 0.116 ± 0.00263 kcal/mol | excess molar enthalpy ([4]; x1 = 0.192): 0.138 ± 0.00311 kcal/mol | excess molar enthalpy ([4]; x1 = 0.2279): 0.159 ± 0.00335 kcal/mol | excess molar enthalpy ([4]; x1 = 0.264): 0.176 ± 0.00382 kcal/mol | excess molar enthalpy ([4]; x1 = 0.2993): 0.196 ± 0.0043 kcal/mol | excess molar enthalpy ([4]; x1 = 0.3336): 0.209 ± 0.00454 kcal/mol | excess molar enthalpy ([4]; x1 = 0.367): 0.22 ± 0.00478 kcal/mol | excess molar enthalpy ([4]; x1 = 0.3861): 0.226 ± 0.00478 kcal/mol | excess molar enthalpy ([4]; x1 = 0.4156): 0.237 ± 0.00502 kcal/mol | excess molar enthalpy ([4]; x1 = 0.4625): 0.252 ± 0.0055 kcal/mol | excess molar enthalpy ([4]; x1 = 0.5081): 0.261 ± 0.0055 kcal/mol | excess molar enthalpy ([4]; x1 = 0.5867): 0.262 ± 0.0055 kcal/mol | excess molar enthalpy ([4]; x1 = 0.6887): 0.24 ± 0.00526 kcal/mol | excess molar enthalpy ([4]; x1 = 0.7931): 0.194 ± 0.0043 kcal/mol | excess molar enthalpy ([4]; x1 = 0.8868): 0.127 ± 0.00287 kcal/mol | excess molar enthalpy ([4]; x1 = 0.957): 0.0574 ± 0.00143 kcal/mol

CO [methanol] + COC=O
mass density ([3]; x2 = 0): 786.4 ± 0.15 kg/m3

CO [methanol] + CCCCC(=O)OC
mass density ([3]; x2 = 0): 786.4 ± 0.15 kg/m3

COC=O [methyl methanoate] + CO
mass density ([3]; x1 = 0.0337): 795.73 ± 0.18 kg/m3 | mass density ([3]; x1 = 0.0833): 808.8 ± 0.18 kg/m3 | mass density ([3]; x1 = 0.1557): 826.74 ± 0.17 kg/m3 | mass density ([3]; x1 = 0.19): 834.77 ± 0.16 kg/m3 | mass density ([3]; x1 = 0.2499): 848.14 ± 0.16 kg/m3 | mass density ([3]; x1 = 0.3219): 863.26 ± 0.15 kg/m3 | mass density ([3]; x1 = 0.3906): 876.73 ± 0.15 kg/m3 | mass density ([3]; x1 = 0.4946): 895.61 ± 0.15 kg/m3 | mass density ([3]; x1 = 0.5416): 903.58 ± 0.15 kg/m3 | mass density ([3]; x1 = 0.6467): 920.31 ± 0.15 kg/m3 | mass density ([3]; x1 = 0.7271): 932.1 ± 0.16 kg/m3 | mass density ([3]; x1 = 0.7815): 939.62 ± 0.16 kg/m3 | mass density ([3]; x1 = 0.8533): 949.01 ± 0.17 kg/m3 | mass density ([3]; x1 = 0.8968): 954.39 ± 0.17 kg/m3 | mass density ([3]; x1 = 0.9357): 959.02 ± 0.18 kg/m3 | mass density ([3]; x1 = 1): 966.28 ± 0.18 kg/m3 | excess molar enthalpy ([4]; x1 = 0.02): 0.0179 ± 0.000478 kcal/mol | excess molar enthalpy ([4]; x1 = 0.0487): 0.0428 ± 0.000956 kcal/mol | excess molar enthalpy ([4]; x1 = 0.0833): 0.0743 ± 0.00167 kcal/mol | excess molar enthalpy ([4]; x1 = 0.1225): 0.105 ± 0.00239 kcal/mol | excess molar enthalpy ([4]; x1 = 0.167): 0.138 ± 0.00311 kcal/mol | excess molar enthalpy ([4]; x1 = 0.2135): 0.168 ± 0.00359 kcal/mol | excess molar enthalpy ([4]; x1 = 0.2613): 0.195 ± 0.0043 kcal/mol | excess molar enthalpy ([4]; x1 = 0.3086): 0.218 ± 0.00478 kcal/mol | excess molar enthalpy ([4]; x1 = 0.3501): 0.236 ± 0.00502 kcal/mol | excess molar enthalpy ([4]; x1 = 0.3644): 0.241 ± 0.00526 kcal/mol | excess molar enthalpy ([4]; x1 = 0.3943): 0.252 ± 0.0055 kcal/mol | excess molar enthalpy ([4]; x1 = 0.4077): 0.257 ± 0.0055 kcal/mol | excess molar enthalpy ([4]; x1 = 0.4572): 0.27 ± 0.00574 kcal/mol | excess molar enthalpy ([4]; x1 = 0.5127): 0.282 ± 0.00598 kcal/mol | excess molar enthalpy ([4]; x1 = 0.5783): 0.286 ± 0.00621 kcal/mol | excess molar enthalpy ([4]; x1 = 0.646): 0.282 ± 0.00598 kcal/mol | excess molar enthalpy ([4]; x1 = 0.7178): 0.264 ± 0.00574 kcal/mol | excess molar enthalpy ([4]; x1 = 0.7842): 0.235 ± 0.00502 kcal/mol | excess molar enthalpy ([4]; x1 = 0.8517): 0.193 ± 0.00406 kcal/mol | excess molar enthalpy ([4]; x1 = 0.9098): 0.14 ± 0.00311 kcal/mol | excess molar enthalpy ([4]; x1 = 0.9505): 0.081 ± 0.00191 kcal/mol

COC=O [methyl methanoate] + CCCCC(=O)OC
mass density ([3]; x2 = 0): 966.28 ± 0.18 kg/m3

COC=O [methyl methanoate]
mass density [1]: 966.28 ± 0.18 kg/m3 | refractive index [2]: 1.3411 ± 0.0005

CCCCC(=O)OC [methyl pentanoate]
mass density [1]: 884.78 ± 0.3 kg/m3 | refractive index [2]: 1.3952 ± 0.0005
